# Reference: US7053088B2, “Vanilloid receptor ligands and their use in treatments” (Amgen Inc., priority 2002, dated 2006)
# Structures can show the parent of a compound that is named as a salt.
row,SMILES,melting point
1,OCc1cc2cccc(Nc3cc(-c4ccc(C(F)(F)F)cc4)ncn3)c2[nH]1 [{7-[6-(4-Trifluoromethylphenyl)pyrimidin-4-ylamino]-1H-indol-2-yl}methanol],221 to 223 °C
2,CC(=O)Nc1ccc(Nc2cc(-c3ccc(C(F)(F)F)cc3)ncn2)cc1 [Example 66],236 to 238 °C
3,Cc1nc2cc(Nc3cc(-c4ccc(C(F)(F)F)cc4)ncn3)ccc2s1 [(2-methylbenzothiazol-5-yl)-[6-(4-trifluoromethylphenyl)pyrimidin-4-yl]amine],219.5 to 220.5 °C
4,FC(F)(F)c1ccc(-c2cc(Nc3cnc4ccccc4c3)ncn2)cc1 [Example 50],262 to 263 °C
5,CC(C)(C)c1ccc(-c2cc(Nc3ccc4ncsc4c3)ncn2)cc1 [benzothiazol-6-yl-[6-(4-tert-butylphenyl)pyrimidin-4-yl]amine],237 °C
6,"CC(C)(C)c1ccc(-c2cc(Nc3ccc4c(c3)OCCO4)nc(N)n2)cc1 (as salt: hydrochloride) [[2-Amino-6-(4-tert-butylphenyl)pyrimidin-4-yl]-(2,3-dihydrobenzo[1,4]-dioxin-6-yl)amine hydrochloride]",221 to 224 °C
7,CS(=O)(=O)c1cccc(Nc2cc(-c3ccc(C(F)(F)F)cc3)ncn2)c1 [(3-Methanesulfonylphenyl)-[6-(4-trifluoromethylphenyl)pyrimidin-4-yl]amine],204 to 205 °C
8,FC(F)(F)c1ccc(-c2cc(Nc3ccc4ncsc4c3)nnc2-c2ccccc2)cc1 [benzothiazol-6-yl-[6-phenyl-5-(4-trifluoromethylphenyl)pyridazin-3-yl]amine],272 °C
9,FC(F)(F)c1ccc(-c2cc(Nc3cccnc3Cl)ncn2)cc1 [(2-chloropyridin-3-yl)-[6-(4-trifluoromethylphenyl)pyrimidin-4-ylamine],134 to 135 °C
10,FC(F)(F)c1ccc(-c2cc(Nc3ccc(Cl)c(C(F)(F)F)c3)ncn2)cc1 [(4-chloro-3-trifluoromethylphenyl)-[6-(4-trifluoromethylphenyl)pyrimidin-4-yl]amine],172 to 175 °C
11,FC(F)(F)c1ccc(-c2cc(Nc3cccc4[nH]ccc34)ncn2)cc1 [Example 43],222 to 224 °C
12,FC(F)(F)c1ccc(-c2cc(Nc3ccc4cc[nH]c4c3)ncn2)cc1 [Example 42],231 to 232 °C
13,"FC(F)(F)c1ccc(-c2cc(Nc3ccc4c(c3)OCCO4)ncn2)cc1 [(2,3-dihydrobenzo[1,4]dioxin-6-yl)-[6-(4-trifluoromethylphenyl)pyrimidin-4-yl]amine]",167 to 168 °C
14,CC(C)(C)c1ccc(-c2cc(Nc3ccc4nn[nH]c4c3)ncn2)cc1 [(3H-benzotriazol-5-yl)-[6-(4-tert-butylphenyl)pyrimidin-4-yl]amine],250 to 252 °C
15,CC(C)(C)c1ccc(-c2cc(Nc3ccc4cc[nH]c4c3)ncn2)cc1 [Example 48],194 to 196 °C
16,FC(F)(F)c1ccc(-c2cc(Nc3cccc4ccc(Cl)nc34)ncn2)cc1 [(2-Chloroquinolin-8-yl)-[6-(4-trifluoromethylphenyl)pyrimidin-4-yl]amine],240 °C
17,OCCOc1ccc(Nc2cc(-c3ccc(C(F)(F)F)cc3)ncn2)cn1 [2-{5-[6-(4-Trifluoromethylphenyl)pyrimidin-4-ylamino]pyridin-2-yloxy}ethanol],189.5 to 190.5 °C
18,COc1cccc(Nc2cc(-c3ccc(C(C)(C)C)cc3)ncn2)c1 [[6-(4-tert-butylphenyl)pyrimidin-4-yl]-(3-methoxyphenyl)amine],184 to 187 °C
19,"COc1ccc(-c2nnc(Nc3ccc4cccnc4c3)cc2-c2ccc(C(F)(F)F)cc2)cc1 [Example 89, [6-(4-Methoxyphenyl)-5-(4-trifluoromethylphenyl)pyridazin-3-yl]-[quinolin-7-yl]amine]",215 to 217 °C
20,FC(F)(F)c1ccc(-c2cc(Nc3cccc4cccnc34)ncn2)cc1 [Example 73],162 to 163 °C
21,FC(F)(F)c1ccc(-c2cc(Nc3ccc4ccccc4c3)ncn2)cc1 [Example 70],212 to 213 °C
22,Oc1ccc2ccc(Nc3cc(-c4ccc(C(F)(F)F)cc4)ncn3)cc2n1 [7-[6-(4-Trifluoromethylphenyl)pyrimidin-4-ylamino]quinolin-2-ol],337 °C (dec.)
23,"FC(F)(F)c1ccc(-c2cc(Nc3ccc4ncsc4c3)nnc2-c2ccc(C(F)(F)F)cc2)cc1 [benzothiazol-6-yl-[5,6-bis-(4-trifluoromethylphenyl)pyridazin-3-yl]amine]",243 °C
24,FC(F)(F)c1ccc(-c2cc(Nc3cccc4ccccc34)ncn2)cc1 [Example 76],232 to 233 °C
25,COc1ccc2ccc(Nc3cc(-c4ccc(C(F)(F)F)cc4)ncn3)cc2n1 [(2-Methoxyquinolin-7-yl)-[6-(4-trifluoromethylphenyl)pyrimidin-4-yl]amine],199 °C
26,"FC(F)(F)c1ccc(-c2cc(Nc3ccc4c(n3)NCCC4)ncn2)cc1 [(5,6,7,8-tetrahydro[1,8]naphthyridin-2-yl)-[6-(4-trifluoromethylphenyl)pyrimidin-4-yl]amine]",168 °C

row,SMILES,melting point
1,"CC(C)(C)c1ccc(-c2cc(Nc3ccc4c(c3)OCCO4)ncn2)cc1 [[6-(4-tert-Butylphenyl)pyrimidin-4-yl]-(2,3-dihydrobenzo[1,4]dioxin-6-yl)amine]",199 to 202 °C
2,FC(F)(F)c1ccc(-c2cc(Nc3ccc4scnc4c3)ncn2)cc1 [Benzothiazol-5-yl-[6-(4-trifluoromethylphenyl)pyrimidin-4-yl]amine],192.1 to 192.2 °C
3,"Cc1cc(O)nc2cc(Nc3cc(-c4ccc(C(F)(F)F)cc4)ncn3)ccc12.Cl [4-Methyl-7-{[6-(4-trifluoromethylphenyl)pyrimidin-4-yl]amino}quinolin-2-ol, hydrochloride]",373 °C (dec.)
4,Fc1ccc(-c2nnc(Nc3ccc4ncsc4c3)cc2-c2ccc(C(F)(F)F)cc2)cc1 [benzothiazol-6-yl-[6-(4-fluorophenyl)-5-(4-trifluoromethylphenyl)pyridazin-3-yl]amine],269 °C
5,CC(C)(C)c1ccc(-c2cc(Nc3cccc4[nH]ccc34)ncn2)cc1 [Example 46],241 to 242 °C
6,FC(F)(F)c1ccc(-c2cc(Nc3ccc4[nH]ncc4c3)ncn2)cc1 [(1H-indazol-5-yl)-[6-(4-trifluoromethylphenyl)pyrimidin-4-yl]amine],224 to 226 °C
7,"CC(C)(C)c1ccc(-c2cc(Nc3ccc4c(c3)CCCC4=O)ncn2)cc1 [6-[6-(4-tert-butylphenyl)pyrimidin-4-ylamino]-3,4-dihydro-2H-naphthalen-1-one]",230 to 232 °C
8,COc1ccc(Nc2cc(-c3ccc(C(F)(F)F)cc3)ncn2)cn1 [(6-methoxypyridin-3-yl)-[6-(4-trifluoromethylphenyl)pyrimidin-4-yl]amine],123 to 127 °C
9,FC(F)(F)c1ccc(-c2cc(Nc3ccc4ncccc4c3)ncn2)cc1 [Example 72],268 to 269 °C
10,FC(F)(F)c1ccc(-c2cc(Nc3ccc4ncsc4c3)nnc2Cl)cc1 [Benzothiazol-6-yl-[6-chloro-5-(4-trifluoromethylphenyl)pyridazin-3-yl]amine],206.3 °C (dec.)
11,CC(C)(C)c1ccc(-c2cc(Nc3ccc4[nH]ccc4c3)ncn2)cc1 [Example 54],238 to 240 °C
12,FC(F)(F)c1ccc(-c2cc(Nc3ccccc3)ncn2)cc1 [phenyl-[6-(4-trifluoromethylphenyl)pyrimidin-4-yl]amine],184 to 186 °C
13,Cc1ccc(Cl)cc1Nc1cc(-c2ccc(C(F)(F)F)cc2)ncn1 [Example 65],144 to 146 °C
14,FC(F)(F)c1ccc(-c2cc(Nc3ccc4ccc(Cl)nc4c3)ncn2)cc1 [(2-Chloroquinolin-7-yl)-[6-(4-trifluoromethylphenyl)pyrimidin-4-yl]amine],233 °C
15,"Nc1ccc2cccc(Nc3cc(-c4ccc(C(F)(F)F)cc4)ncn3)c2n1 [N^8-[6-(4-Trifluoromethylphenyl)pyrimidin-4-yl]quinoline-2,8-diamine]",211 to 213 °C
16,FC(F)(F)c1ccc(-c2cc(Nc3cccc4ncccc34)ncn2)cc1 [Example 74],238 to 239 °C
17,"FC(F)(F)c1ccc(-c2cc(Nc3ccc(Cl)c(Cl)c3)ncn2)cc1 [(3,4-dichlorophenyl)-[6-(4-trifluoromethylphenyl)pyrimidin-4-yl]amine]",178 to 180 °C
18,CC(C)(C)c1ccc(-c2cc(Nc3cnc4ccccc4c3)ncn2)cc1 [Example 47],227 to 229 °C
19,Cc1ccc(Nc2cc(-c3ccc(C(F)(F)F)cc3)ncn2)cc1 [Example 60],159 to 160 °C
20,CC(C)(C)c1ccc(-c2cc(Nc3ccc4[nH]ccc4c3)nnc2-c2ccccc2)cc1 [[5-(4-tert-Butylphenyl)-6-phenyl-pyridazin-3-yl]-(1H-indol-5-yl)-amine],138 to 140 °C
21,CC(C)(C)c1ccc(-c2cc(Nc3ccc4ncsc4c3)nnc2-c2ccccc2)cc1 [Benzothiazol-6-yl-[5-(4-tert-butylphenyl)-6-phenylpyridazin-3-yl]amine],293 to 295 °C
22,"Cc1ccc(Nc2cc(-c3ccc(C(F)(F)F)cc3)ncn2)cc1C [(3,4-dimethylphenyl)-[6-(4-trifluoromethylphenyl)pyrimidin-4-yl]amine]",154 to 156 °C
23,"CC(C)(C)c1ccc(-c2cc(Nc3ccc4ncsc4c3)nc(N)n2)cc1.Cl [N^4-Benzothiazol-6-yl-6-(4-tert-butylphenyl)pyrimidine-2,4-diamine hydrochloride]",220 to 222 °C
24,"CC(=O)N1CC(C)(C)c2ccc(Nc3cc(-c4ccc(C(F)(F)F)cc4)ncn3)cc21 [1-{3,3-Dimethyl-6-[6-(4-trifluoromethylphenyl)pyrimidin-4-ylamino]-2,3-dihydroindol-1-yl}ethanone]",227 to 230 °C
25,CSc1cccc(Nc2cc(-c3ccc(C(F)(F)F)cc3)ncn2)c1 [(3-methylsulfanylphenyl)-[6-(4-trifluoromethylphenyl)pyrimidin-4-yl]amine],130 to 132 °C
26,FC(F)(F)c1ccc(-c2cc(Nc3ccc4cccnc4c3)ncn2)cc1 [Quinolyl-7-yl-[6-(4-trifluoromethylphenyl)pyrimidin-4-yl]amine],260 °C
